≈ marks a conversion by molar mass, not a printed value. Entries after “also recorded” stand apart in the source; their conditions may differ. Where two headings read alike, the source gives them in different places.
What was measured:
[1] = tested on: cytomegaloviruses (CMV laboratory strain AD169); assay: ELISA of production of CMV late antigens in HFF cells; assay type: cell-based; details: for therapeutic index: quotient TC50/IC50, HFF cells
Description: Antiviral activity: cells and viruses employed
(§1) Human foreskin fibroblasts (HFF) are grown in a nutrient medium consisting of Eagle's minimal essential medium (EMEM) to which 10% fetal calf serum has been added.
The CMV laboratory strain AD169 is used. The viruses are propagated in EMEM nutrient medium to which 4% fetal calf serum has been added (maintenance medium). The virus titer is established by determining so-called immediate early antigen forming units (IEFUs) which are formed in the maintenance medium (Gerna et al. (1992), Antiviral Res. Vol. 19: 333-345).
The antiviral effect of the substances on the propagation of cytomegaloviruses is determined by different parameters:
In an ELISA (enzyme-linked immunosorbent assay), the production of CMV late antigens is determined. […] The substances according to the invention have an IC50 value of 4 μg/ml±1 μg/ml.

in vitro = assay type: cell-based; details: human, hff cells
Description: as §1
(§2) The cell vitality is measured in an HFF cell culture using an MTT assay. The result is expressed as the TC50 value, which is the concentration at which 50% of the cells tested are still vital. In HFF cells, it is 435 μg/ml for the substances according to the invention.

lymphocyte proliferation = assay: phytohemagglutinin stimulated lymphocyte proliferation ([3H]-thymidine); assay type: cell-based
Description: For a proliferation assay, lymphocyte cultures were started in mixed lymphocyte cultures (MLC), or with 1% phytohemagglutinin (PHA), in a total volume of 200 μl of culture medium. 18 to 20 hours before the measurement, 0.1 μCi methyl-[^3 H]-thymidine (NEN, Germany) was added. Radiolabeled DNA was harvested on filter membranes (Schleicher & Schull, Germany). The radioactivity was quantified with a scintillation counter (Zinsser, Germany). The sample PBL pertains to peripheral blood lymphocytes as a control.

phospholipase C = details: cited from earlier work
phospholipase D = details: cited from earlier work
antibody production = details: intraperitoneal, mice; cited from earlier work
[2] = tested on: DTH (delayed type hypersensitivity) reaction; details: intraperitoneal, mice; cited from earlier work
B cells = details: in vitro; cited from earlier work
T cells = details: in vitro; cited from earlier work
[3] = cited from earlier work
[4] = tested on: Human foreskin fibroblasts (HFF); assay: in vitro; assay type: cell-based; details: hff cells
Description: as §1, §2

Herpes simplex viruses = details: literature; cited from earlier work
Varicella zoster viruses = details: literature; cited from earlier work
Epstein-Barr viruses = details: literature; cited from earlier work
human cytomegaloviruses = details: literature; cited from earlier work
hepatitis viruses = details: literature, cell cultures; cited from earlier work
viral DNA polymerases = details: cited from earlier work
[5] = tested on: viral reverse transcriptases; details: cited from earlier work
[6] = literature; cited from earlier work
[7] = mouse, in vivo; cited from earlier work
[8] = Human betaherpesvirus 5, AD169, production of CMV late antigens, ELISA, HFF cells, read-out: inhibitory concentration IC50
[9] = production of CMV late antigens, ELISA, HFF cells

For `O=C(O)C[C@@H](NCCN[C@H](CC(=O)O)C(=O)O)C(=O)O` [(R,R)-N,N'-ethylenediamine disuccinate], the IC50 [1, 8] was 41 µg/mL, the therapeutic index [1] was at least 2.2 and the CC50 (in vitro) was at least 100 µg/mL.

For `O=C(O)C[C@H](NCCN[C@H](CC(=O)O)C(=O)O)C(=O)O` [(R,S)-N,N'-ethylenediamine disuccinate], the IC50 [1, 8] was 46 µg/mL, the therapeutic index [1] was at least 2.2 and the CC50 (in vitro) was at least 100 µg/mL.

Compound `O=C(O)CC[C@H](NCCN[C@@H](CCC(=O)O)C(=O)O)C(=O)O` [(S,S)-N,N'-ethylenediamine diglutamate] has an IC50 [1, 8] of at least 100 µg/mL and a CC50 (in vitro) of at least 100 µg/mL.

`O=C(O)C[C@H](NCCN[C@@H](CC(=O)O)C(=O)O)C(=O)O` [(S,S)-N,N'-ethylenediamine disuccinate] gave an IC50 ([1]; Human betaherpesvirus 5, AD169, HFF, activity against cytomegaloviruses, read-out: IC50) of 4 µg/mL, a therapeutic index [1] of 109 and a CC50 (in vitro) of 435 µg/mL. For the same compound, the immunosuppressive activity (lymphocyte proliferation) was “inhibition of phytohemagglutinin stimulated lymphocyte proliferation”, the “inhibition of phospholipase C” value (phospholipase C) was “inhibits” and the “inhibition of phospholipase D” value (phospholipase D) was “inhibits”. The antibody production (antibody production) was “suppressed”, the “DTH (delayed type hypersensitivity) reaction” value [2] was “suppressed” and the “blastogenesis of B cells” value (B cells) was “suppressed”. For the same compound, the “blastogenesis of T cells” value (T cells) was “suppressed” and the toxicity in mice [3] was “relatively low”.

For `CC(CN[C@@H](CCC(=O)O)C(=O)O)N[C@@H](CCC(=O)O)C(=O)O` (stereo partly drawn) [(S,S)-N,N'-propylenediamine diglutamate], the “inhibitory concentration IC50” value [1, 9] was at least 100 µg/mL and the “toxic concentration TC50” value [4] was at least 100 µg/mL.

For `CC(CN[C@@H](CC(=O)O)C(=O)O)N[C@@H](CC(=O)O)C(=O)O` (stereo partly drawn) [(S,S)-N,N'-propylenediamine disuccinate], the “inhibitory concentration IC50” value [1, 9] was at least 100 µg/mL and the “toxic concentration TC50” value [4] was at least 100 µg/mL.

For `O=C(O)P(=O)(O)O` [Foscarnet], the “antiviral activity, Herpes simplex viruses” value (Herpes simplex viruses) is given as “selective activity”, the “antiviral activity, Varicella zoster viruses” value (Varicella zoster viruses) is given as “selective activity” and the “antiviral activity, Epstein-Barr viruses” value (Epstein-Barr viruses) is given as “selective activity”. The “antiviral activity, cytomegaloviruses” value (human cytomegaloviruses) was “virostatic effect”, the resistance of cytomegaloviruses (human cytomegaloviruses) was “more resistant” and the “antiviral activity, hepatitis viruses” value (hepatitis viruses) was “selective activity”. The “inhibition of viral DNA polymerases” value (viral DNA polymerases) was “inhibition” and the “inhibition of viral reverse transcriptases” value [5] was “inhibition”.

In the case of `Nc1nc(O)c2ncn(COC(CO)CO)c2n1` [Ganciclovir], the “antiviral activity, Herpes simplex viruses” value (Herpes simplex viruses) is given as “effective”, the “antiviral activity, Varicella zoster viruses” value (Varicella zoster viruses) is given as “effective” and the “antiviral activity, Epstein-Barr viruses” value (Epstein-Barr viruses) is given as “effective”. The resistance of cytomegaloviruses (human cytomegaloviruses) was “more resistant”, the “toxicity / side effects” value [6] was “high side-effect level; also recorded: leads to neutropenia” and the tumor development [7] was “observed to develop tumors”.

Work on `CC(=O)N(O)CCCCCNC(=O)CCC(=O)N(O)CCCCCNC(=O)CCC(=O)N(O)CCCCCN` [desferrioxamine] yielded an IC50 [1, 8] of 4.1 µg/mL (≈ 7.31 µM), a therapeutic index [1] of 3 and a CC50 (in vitro) of 12 µg/mL (≈ 21.4 µM). The “antiviral activity, Herpes simplex viruses” value (Herpes simplex viruses) was “successfully used”, the “antiviral activity, Varicella zoster viruses” value (Varicella zoster viruses) was “successfully used” and the “antiviral activity, Epstein-Barr viruses” value (Epstein-Barr viruses) was “successfully used”. For the same compound, the “antiviral activity, cytomegaloviruses” value (human cytomegaloviruses) was “successfully used” and the “toxicity / side effects” value [6] was “low toxicity”.

Compound `O=C(O)CN(CCN(CC(=O)O)CC(=O)O)CCN(CC(=O)O)CC(=O)O` [diethylenetriaminepentaacetic acid] has an IC50 [1, 8] of 4 µg/mL (≈ 10.2 µM), a therapeutic index [1] of 31 and a CC50 (in vitro) of 123 µg/mL (≈ 313 µM).

With (R,R)-N,N'-propylenediamine disuccinate the “inhibitory concentration IC50” value [1, 9] was at least 100 µg/mL and the “toxic concentration TC50” value [4] was at least 100 µg/mL.

— US6140367A, “Use of ethylene diamine disuccinate for preparing a medicament with antiviral properties” (priority 1996, dated 2000)
